Data taken from ChEMBL document CHEMBL6153093, “Aurovertins from a Marine-Derived Penicillium Species and Nonenzymatic Reactions in Their Formation” (J Nat Prod, 2025).
Calls of active or inactive are those of the source. The rule behind the calls is not given here.

Columns and labels:
A549 = experiment: Cytotoxicity against human A549 cells incubated for 48 hrs by CCK8 assay; format: functional, cell-based
Pseudomonas aeruginosa = experiment: Antibacterial activity against Pseudomonas aeruginosa ATCC 10145 at 0.1 mg/mL incubated for 12 hrs by agar dilution method; format: functional, organism-based
L02 = experiment: Cytotoxicity against human L02 cells incubated for 48 hrs by CCK8 assay; format: toxicity, cell-based; conditions: l02, 48 h
Escherichia coli = experiment: Antibacterial activity against Escherichia coli ATCC 11775 at 0.1 mg/mL incubated for 12 hrs by agar dilution method; format: functional, organism-based
Staphylococcus aureus [1] = experiment: Antibacterial activity against methicillin-resistant Staphylococcus aureus subsp. aureus ATCC 43300 at 0.1 mg/mL incubated for 12 hrs by agar dilution method; format: functional, organism-based
Staphylococcus aureus [2] = experiment: Antibacterial activity against Staphylococcus aureus ATCC 6538 at 0.1 mg/mL incubated for 12 hrs by agar dilution method; format: functional, organism-based
HCT-116 = experiment: Cytotoxicity against human HCT-116 cells incubated for 48 hrs by CCK8 assay; format: functional, cell-based
Nakaseomyces glabratus = experiment: Antifungal activity against Candida glabrata ATCC 2001 at 0.1 mg/mL incubated for 12 hrs by agar dilution method; format: functional, organism-based
Candida albicans = experiment: Antifungal activity against Candida albicans ATCC 10231 at 0.1 mg/mL incubated for 12 hrs by agar dilution method; format: functional, organism-based
PC-9 = experiment: Cytotoxicity against human PC-9 cells incubated for 48 hrs by CCK8 assay; format: functional, cell-based

SMILES: COc1cc(=O)oc(/C=C/C=C/C=C/C(C)=C/[C@]2(C)O[C@H](C)[C@](C)(O)[C@H]2O)c1C
- Activity (A549): inactive
- Activity (Pseudomonas aeruginosa): inactive
- Activity (L02): Non-toxic
- Activity (Escherichia coli): inactive
- Activity (Staphylococcus aureus [1]): inactive
- Activity (Staphylococcus aureus [2]): inactive
- Activity (HCT-116): inactive
- Activity (Nakaseomyces glabratus): inactive
- Activity (Candida albicans): inactive

SMILES: COc1cc(=O)oc(/C=C/C=C/C=C\[C@]2(C)O[C@]3(C)[C@@H](O)[C@](C)(O[C@@H]3C)[C@@H]2O)c1C
- Activity (A549): inactive
- Activity (Pseudomonas aeruginosa): inactive
- Activity (L02): Non-toxic
- Activity (Escherichia coli): inactive
- Activity (PC-9): inactive
- Activity (Staphylococcus aureus [1]): inactive
- Activity (Staphylococcus aureus [2]): inactive
- Activity (Nakaseomyces glabratus): inactive
- Activity (Candida albicans): inactive

SMILES: COc1cc(=O)oc(/C=C/C=C/C=C/[C@]2(C)O[C@]3(C)[C@@H](O)[C@@](C)(O[C@@H]3C)[C@@H]2O)c1C
- Activity (A549): inactive
- Activity (Pseudomonas aeruginosa): inactive
- Activity (L02): Non-toxic
- Activity (Escherichia coli): inactive
- Activity (PC-9): inactive
- Activity (Staphylococcus aureus [1]): inactive
- Activity (Staphylococcus aureus [2]): inactive
- Activity (Nakaseomyces glabratus): inactive
- Activity (Candida albicans): inactive

SMILES: COc1cc(=O)oc(/C=C/C=C/C=C/[C@]2(C)O[C@]3(C)[C@@H](O)[C@@](C)(O[C@@H]3C)[C@H]2O)c1C
- Activity (A549): inactive
- Activity (Pseudomonas aeruginosa): inactive
- Activity (L02): Non-toxic
- Activity (Escherichia coli): inactive
- Activity (PC-9): inactive
- Activity (Staphylococcus aureus [1]): inactive
- Activity (Staphylococcus aureus [2]): inactive
- Activity (Nakaseomyces glabratus): inactive
- Activity (Candida albicans): inactive

SMILES: COc1cc(=O)oc(\C=C/C=C/C=C/[C@]2(C)O[C@]3(C)[C@@H](O)[C@@](C)(O[C@@H]3C)[C@@H]2O)c1C
- Activity (A549): inactive
- Activity (Pseudomonas aeruginosa): inactive
- Activity (L02): Non-toxic
- Activity (Escherichia coli): inactive
- Activity (PC-9): inactive
- Activity (Staphylococcus aureus [1]): inactive
- Activity (Staphylococcus aureus [2]): inactive
- Activity (Nakaseomyces glabratus): inactive
- Activity (Candida albicans): inactive

SMILES: COc1cc(=O)oc(\C=C/C=C/C=C/C(C)=C/[C@]2(C)O[C@H](C)[C@](C)(O)[C@H]2O)c1C
- Activity (A549): inactive
- Activity (Pseudomonas aeruginosa): inactive
- Activity (L02): Non-toxic
- Activity (Escherichia coli): inactive
- Activity (Staphylococcus aureus [1]): inactive
- Activity (Staphylococcus aureus [2]): inactive
- Activity (HCT-116): inactive
- Activity (Nakaseomyces glabratus): inactive
- Activity (Candida albicans): inactive

SMILES: COc1cc(=O)oc(/C=C/C=C/C=C/[C@]2(C)O[C@]3(C)[C@@H](O)[C@@](C)(O[C@@H]3C)C2=O)c1C
- Activity (A549): inactive
- Activity (Pseudomonas aeruginosa): inactive
- Activity (L02): Non-toxic
- Activity (Escherichia coli): inactive
- Activity (PC-9): inactive
- Activity (Staphylococcus aureus [1]): inactive
- Activity (Staphylococcus aureus [2]): inactive
- Activity (Nakaseomyces glabratus): inactive
- Activity (Candida albicans): inactive

SMILES: COc1cc(=O)oc(/C=C/C=C/C=C\[C@@]2(C)O[C@]3(C)[C@@H](O)[C@](C)(O[C@@H]3C)[C@@H]2O)c1C
- Activity (A549): inactive
- Activity (Pseudomonas aeruginosa): inactive
- Activity (L02): Non-toxic
- Activity (Escherichia coli): inactive
- Activity (PC-9): inactive
- Activity (Staphylococcus aureus [1]): inactive
- Activity (Staphylococcus aureus [2]): inactive
- Activity (Nakaseomyces glabratus): inactive
- Activity (Candida albicans): inactive

SMILES: COc1cc(=O)oc(/C=C/C=C/C=C/[C@@]2(C)O[C@@]3(C)[C@@H](C)O[C@](C)(C2=O)[C@H]3O)c1C
- Activity (A549): inactive
- Activity (Pseudomonas aeruginosa): inactive
- Activity (L02): Non-toxic
- Activity (Escherichia coli): inactive
- Activity (PC-9): inactive
- Activity (Staphylococcus aureus [1]): inactive
- Activity (Staphylococcus aureus [2]): inactive
- Activity (Nakaseomyces glabratus): inactive
- Activity (Candida albicans): inactive

SMILES: COc1cc(=O)oc(/C=C/C=C/C=C/[C@@]2(C)O[C@]3(C)[C@@H](O)[C@](C)(O[C@@H]3C)[C@H]2O)c1C
- Activity (A549): inactive
- Activity (Pseudomonas aeruginosa): inactive
- Activity (L02): Non-toxic
- Activity (Escherichia coli): inactive
- Activity (PC-9): inactive
- Activity (Staphylococcus aureus [1]): inactive
- Activity (Staphylococcus aureus [2]): inactive
- Activity (Nakaseomyces glabratus): inactive
- Activity (Candida albicans): inactive

SMILES: COc1cc(=O)oc(/C=C/C=C/C=C/C(C)=C\[C@]2(C)O[C@H](C)[C@](C)(O)[C@H]2O)c1C
- Activity (A549): inactive
- Activity (Pseudomonas aeruginosa): inactive
- Activity (L02): Non-toxic
- Activity (Escherichia coli): inactive
- Activity (Staphylococcus aureus [1]): inactive
- Activity (Staphylococcus aureus [2]): inactive
- Activity (HCT-116): inactive
- Activity (Nakaseomyces glabratus): inactive
- Activity (Candida albicans): inactive

SMILES: COc1cc(=O)oc(/C=C/C=C/C=C/[C@@]2(C)O[C@]3(C)[C@@H](O)[C@@](C)(O[C@@H]3C)C2=O)c1C
- Activity (A549): inactive
- Activity (Pseudomonas aeruginosa): inactive
- Activity (L02): Non-toxic
- Activity (Escherichia coli): inactive
- Activity (PC-9): inactive
- Activity (Staphylococcus aureus [1]): inactive
- Activity (Staphylococcus aureus [2]): inactive
- Activity (Nakaseomyces glabratus): inactive
- Activity (Candida albicans): inactive
